Measurements: patent US20250057997A1, “CONJUGATES COMPRISING COVALENT BINDERS FOR TARGETING INTRACELLULAR PROTEINS” (RayzeBio, Inc., priority 2021, published 2025)

These compounds were tested against T1, mutant EGFR (T790M, L858R) (Homo sapiens, UniProt P00533, L858R/T790M) (assay: In vitro kinase assay (phage/DNA-tagged kinase competition binding, qPCR readout), mutant EGFR). Settings: EGFR construct R669 to V1011; 11-point 3-fold dilution series; 1 hour at room temperature.
T1 construct: The EGFR constructs span amino acids R669 to V1011 of the EGFR protein; made in house; host or cells: E. coli derived from BL21 (T7 phage) for most assays; remaining kinases in HEK-293 cells
Method: For most assays, kinase-tagged T7 phage strains were prepared in an E. coli host derived from the BL21 strain. For the EGFR assays, wild-type EGFR, or mutant EGFR (T790M, L858R) were utilized. The EGFR constructs span amino acids R669 to V1011 of the EGFR protein. E. coli were grown to log-phase and infected with T7 phage and incubated with shaking at 32° C. until lysis. The lysates were centrifuged and filtered to remove cell debris. The remaining kinases were produced in HEK-293 cells and subsequently tagged with DNA for qPCR detection. Streptavidin-coated magnetic beads were treated with biotinylated small molecule ligands for 30 minutes at room temperature to generate affinity resins for kinase assays. The liganded beads were blocked with excess biotin and washed with blocking buffer (SeaBlock (Pierce), 1% BSA, 0.05% Tween 20, 1 mM DTT) to remove unbound ligand and to reduce non-specific binding. Binding reactions were assembled by combining kinases, liganded affinity beads, and test compounds in 1× binding buffer (20% SeaBlock, 0.17×PBS, 0.05% Tween 20, 6 mM DTT). Test compounds were prepared as 111× stocks in 100% DMSO. Kds were determined using an 11-point 3-fold compound dilution series with three DMSO control points. All compounds for Kd measurements are distributed by acoustic transfer (non-contact dispensing) in 100% DMSO. The compounds were then diluted directly into the assays such that the final concentration of DMSO was 0.9%. All reactions performed in polypropylene 384-well plate. Each was a final volume of 0.02 ml. The assay plates were incubated at room temperature with shaking for 1 hour and the affinity beads were washed with wash buffer (1×PBS, 0.05% Tween 20). The beads were then re-suspended in elution buffer (1×PBS, 0.05% Tween 20, 0.5 μM nonbiotinylated affinity ligand) and incubated at room temperature with shaking for 30 minutes. The kinase concentration in the eluates was measured by qPCR.

T1 sequence (P00533 669-1011 T790M/L858R): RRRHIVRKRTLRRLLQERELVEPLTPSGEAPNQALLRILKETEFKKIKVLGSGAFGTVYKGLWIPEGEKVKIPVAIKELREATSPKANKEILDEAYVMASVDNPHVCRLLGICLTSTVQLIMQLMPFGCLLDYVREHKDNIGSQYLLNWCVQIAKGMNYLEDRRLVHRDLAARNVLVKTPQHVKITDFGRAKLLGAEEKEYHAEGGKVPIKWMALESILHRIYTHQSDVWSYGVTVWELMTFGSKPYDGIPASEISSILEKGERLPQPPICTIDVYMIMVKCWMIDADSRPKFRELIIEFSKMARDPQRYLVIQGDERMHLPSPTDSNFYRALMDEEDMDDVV

| SMILES | Kd |
| --- | --- |
| C=CC(=O)N[C@@H]1CN(c2nc(Nc3cn(CCCCCNC(=O)CN4CCN(CC(=O)O)CCN(CC(=O)O)CCN(CC(=O)O)CC4)nc3OC)c3ncn(C)c3n2)C[C@H]1F [Compound 002, 2-[4,7-bis(carboxymethyl)-10-[2-[5-[4-[[2-[(3R,4R)-3-fluoro-4-(prop-2-enoylamino)pyrrolidin-1-yl]-9-methyl-purin-6-yl]amino]-3-methoxy-pyrazol-1-yl]pentylamino]-2-oxo-ethyl]-1,4,7,10-tetrazacyclododec-1-yl]acetic acid] | < 1 nM |

Same assay, conditions: ratio of Kd EGFR (WT) to Kd EGFR (L858R, T790M) double mutant

| SMILES | Binding Affinity ratio of WT/DM |
| --- | --- |
| C=CC(=O)N[C@@H]1CN(c2nc(Nc3cn(CCCCCNC(=O)CN4CCN5CCN6CCN(CC4)CC(=O)[O][Lu]([O]C(=O)C5)[O]C(=O)C6)nc3OC)c3ncn(C(C)(C)C)c3n2)C[C@H]1F [Compound 004-Lu] | B (25 < B ≤ 100) |
| C=CC(=O)N[C@@H]1CN(c2nc(Nc3cn(CCCNC(=O)CN4CCN5CCN6CCN(CC4)CC(=O)[O][Lu]([O]C(=O)C5)[O]C(=O)C6)nc3OC)c3ncn(C)c3n2)C[C@H]1F [Compound 001-Lu] | A (4 < A ≤ 25) |
| C=CC(=O)N[C@@H]1CN(c2nc(Nc3cn(CCCCCNC(=O)CN4CCN5CCN6CCN(CC4)CC(=O)[O][Lu]([O]C(=O)C5)[O]C(=O)C6)nc3CC)c3ncn(C(C)(C)C)c3n2)C[C@H]1F [Compound 005-Lu] | C (100 < C ≤ 1000) |
| C=CC(=O)N1C[C@H](COc2nc(Nc3cnn(CCCCCNC(=O)CN4CCN5CCN6CCN(CC4)CC(=O)[O][Lu]([O]C(=O)C5)[O]C(=O)C6)c3)nc3[nH]cc(Cl)c23)[C@@H](OC)C1 [Compound 007-Lu, N-[5-[4-[[5-chloro-4-[[(3R,4R)-4-methoxy-1-prop-2-enoyl-pyrrolidin-3-yl]methoxy]-7H-pyrrolo[2,3-d]pyrimidin-2-yl]amino]pyrazol-1-yl]pentyl]-2-(3,16,19-trioxo-2,17,18-trioxa-5,8,11,14-tetraza-1λ3-lutetatricyclo[9.6.3.25,14]docosan-8-yl) acetamide] | C (100 < C ≤ 1000) |
| C=CC(=O)N[C@@H]1CN(c2nc(Nc3cn(CCCCCNC(=O)CN4CCN(CC(=O)O)CCN(CC(=O)O)CCN(CC(=O)O)CC4)nc3OC)c3ncn(C)c3n2)C[C@H]1F [Compound 002, 2-[4,7-bis(carboxymethyl)-10-[2-[5-[4-[[2-[(3R,4R)-3-fluoro-4-(prop-2-enoylamino)pyrrolidin-1-yl]-9-methyl-purin-6-yl]amino]-3-methoxy-pyrazol-1-yl]pentylamino]-2-oxo-ethyl]-1,4,7,10-tetrazacyclododec-1-yl]acetic acid] | A (4 < A ≤ 25) |
